Where “and” joins values, the source holds several entries; their conditions need not be identical. Equal entries are not always repeated. Where two headings read alike, the source gives them in different places.
Assays:
[1] = Metabolic stability half-life (matrix not given); format: in vitro ADME; conditions: matrix not stated; read-out: metabolic stability half-life t 1/2
Method: First, we evaluated the most promising compounds considering in vitro pharmacokinetic properties such as solubility and metabolic stability. […] Compounds 4 and 19 were moderately stable with half‐lives of 10 and 19 min, respectively.

hERG channel = target: T1, hERG channel (Homo sapiens, UniProt Q12809); assay: hERG functional patch-clamp inhibition assay; format: cell-based
T1 construct: Cyprotex (contract assay)
Method: 5.2. CYP and hERG inhibition
Assessment of in vitro drug safety regarding Cytochrom P450 (CYP) inhibition and inhibiton of human ether-à-go-go related gene (hERG) channel with a functional (patch-clamp-based) assay were performed at Cyprotex. Detailed information about the assays can be found in: https://www.cyprotex.com/admepk/in-vitro-metabolism/cytochrome-p450-inhibition, and […]

[2] = tested on: Ca2+ channel (L, dihydropyridine site); assay: CEREP off-target panel, antagonist radioligand; format: binding; conditions: @10µM
Method: (§1) 5. In vitro ADME/T and Safety Pharmacology
(§2) 5.1. CEREP off-targets assay
(§3) Experiments towards possible off-target effects were conducted following Eurofins Discovery protocol. Detailed information about the assays can be found in: https://www.eurofinsdiscoveryservices.com/catalogmanagement/viewitem/SafetyScreen44- […]
(§4) Table S3. Possible CEREP off-targets. entry off-target QSI 4 QSI 17 Assay
(§5) (%binding (%binding method
(§6) (1 picture or pasted object on this page, not shown here)

Dopamine transporter = target: T2, Dopamine transporter (Homo sapiens, UniProt Q01959); assay: CEREP off-target panel, antagonist radioligand; format: binding; conditions: @10µM
T2 construct: Eurofins Discovery (SafetyScreen44 Panel, Cerep) P270
Method: as §1, §2, §3, §4, §5, §6

Na+ channel (site 2) = assay: CEREP off-target panel, antagonist radioligand; format: binding; conditions: @10µM
Method: as §1, §2, §3, §4, §5, §6

[3] = target: T3, Norepinephrine transporter (Homo sapiens, UniProt P23975); assay: CEREP off-target panel, antagonist radioligand; format: binding; conditions: @10µM
T3 construct: Eurofins Discovery (SafetyScreen44 Panel, Cerep) P270
Method: as §1, §2, §3, §4, §5, §6

α1A receptor = target: T4, α1A receptor (Homo sapiens, UniProt P35348); assay: CEREP off-target panel, antagonist radioligand; format: binding; conditions: @10µM
T4 construct: Eurofins Discovery (SafetyScreen44 Panel, Cerep) P270
Method: as §1, §2, §3, §4, §5, §6

β2 receptor = target: T5, β2 receptor (Homo sapiens, UniProt P07550); assay: CEREP off-target panel, antagonist radioligand; format: binding; conditions: @10µM
T5 construct: Eurofins Discovery (SafetyScreen44 Panel, Cerep) P270
Method: as §1, §2, §3, §4, §5, §6

5-HT2A = target: T6, 5-HT2A (Homo sapiens, UniProt P28223); assay: CEREP off-target panel, agonist radioligand; format: binding; conditions: @10µM
T6 construct: Eurofins Discovery (SafetyScreen44 Panel, Cerep) P270
Method: as §1, §2, §3, §4, §5, §6

5-HT2B = target: T7, 5-HT2B (Homo sapiens, UniProt P41595); assay: CEREP off-target panel, agonist radioligand; format: binding; conditions: @10µM
T7 construct: Eurofins Discovery (SafetyScreen44 Panel, Cerep) P270
Method: as §1, §2, §3, §4, §5, §6

AR = assay: CEREP off-target panel, agonist radioligand; format: binding; conditions: @10µM
Method: as §1, §2, §3, §4, §5, §6

[4] = In vivo pharmacokinetics after intratracheal instillation; parameters: species or system mouse; conditions: for Kp / Cmax / AUC(0-t) / MRT / Tmax / half-life / CL/F / Vd/F / AUC: male, CD1, mouse, inhaled or intranasal; for Kp: BALF and plasma, read-out: AUC ratio BALF/Plasma; for Vd/F: read-out: Vz/F_obs
Method: 6.2. PK Sample Preparation and Analysis
Groups of male CD1 mice (25-30 g, Charles River UK) were housed in groups of up to 6 and maintained under a 12 h light/dark cycle with free access to food and water. Temperature and humidity were controlled according to U.K. HO regulations. On the day of the study, mice were briefly anaesthetized with isoflurane before suspending the mouse by its upper incisors on a board held at an angle of approx. 45 degrees. Mice were then dosed intratracheally with the compound (4 or Tob) at the designated does formulated in ethanol/tyloxapol/glycerol/phosphate-buffered saline (PBS) [10:1:5:84] in a 1 mL/kg dosing volume up to a maximum of 30 µL per mouse. A laryngoscope was used to facilitate dosing.
Animals were allowed to recover before replacing into their home cages. […]
Blood samples were placed in tubes on ice containing EDTA anticoagulant. After gentle mixing, samples were centrifuged (10,000 rpm x 3 min) and two 50 μL aliquots taken into fresh tubes that were immediately frozen on dry ice. Following blood sample collection, tracheas were exposed and a small incision made. An 18 Gauge plastic tube was then inserted through the incision into the trachea and tied in place. Aliquots of 0.8 mL of sterile saline were then infused into and then withdrawn from the lungs and the collected bronchoalveolar lavage (BAL) sample placed into a tube. This process was repeated two more times, and the samples from each mouse pooled. The resulting samples were weighed and mixed, before a 1 mL aliquot was taken for analysis and frozen on dry ice.
Immediately after collecting the final BALF sample, lung samples were excised and excess tissue removed, before rinsing in saline, blotting and weighing. Samples were then snap frozen by immersion in liquid nitrogen. All samples were stored at -20 °C until sent for […]
All PK plasma samples were analyzed via HPLC-MS/MS using an Agilent 1290 Infinity II HPLC system coupled to an AB Sciex QTrap 6500plus mass spectrometer. First, a calibration curve was prepared by spiking different concentrations of compound 4 or Tob (Fa. Sigma) into plasma, homogenized lung from CD-1 mice or 0.9% sodium chloride solution as matrix for broncheoalveolar lavage fluid (BALF). The lower limits of quantification are indicated in Table S5. Caffeine was used as internal standard. In addition, quality control samples (QCs) were prepared for 4 and Tob in plasma, homogenized lung and 0.9% sodium chloride […]
The following extraction procedure was used for 4: plasma: 7.5 µL of a plasma sample (calibration samples, QCs or PK samples) was extracted with 37.5 µL of acetonitrile containing 12.5 ng/mL caffeine as internal standard for 10 min at 2000 rpm on an Eppendorf MixMate® vortex mixer. Lung: homogenized samples were diluted to 50 mg/mL lung tissue in 0.9% sodium chloride solution. A 50 µL of a lung sample (calibration samples, QCs or PK samples) was extracted with 15 µL water containing 10% formic acid and 50 µL of acetonitrile containing 12.5 ng/mL caffeine as internal standard for 10 min at 2.000 rpm on an Eppendorf MixMate® vortex mixer. BALF: 200 µL of methanol were added to 100 µL of a BALF sample (calibration samples, QCs or PK samples). Samples were concentrated in an Eppendorf concentrator until dryness at 30 °C. A 30 µL of water containing 10% formic acid

[5] = BALF, 0.5 mg kg^−1, mice, intratracheal, BALF, read-out: Cmax BALF
[6] = BALF, mice, intratracheal, Figure 3B, read-out: BALF: AUC0-t
[7] = ELF (calculated from BALF), 0.5 mg kg^−1, mice, intratracheal, ELF calculated from BALF, read-out: Cmax ELF
[8] = 0.5 mg kg^−1, mice, intratracheal, BALF, read-out: AUC0-t BALF
[9] = 0.5 mg kg^−1, mice, intratracheal, BALF, read-out: MRT BALF
[10] = 0.5 mg kg^−1, mice, intratracheal, BALF, read-out: Tmax BALF
[11] = 0.5 mg kg^−1, mice, intratracheal, ELF calculated from BALF, read-out: AUC0-t ELF
[12] = 0.5 mg kg^−1, mice, intratracheal, ELF calculated from BALF, read-out: MRT ELF
[13] = 0.5 mg kg^−1, mice, intratracheal, ELF calculated from BALF, read-out: Tmax ELF
[14] = 0.5 mg kg^−1, mice, intratracheal, ELF calculated from BALF, read-out: t1/2 ELF (converted)
[15] = 0.5 mg kg^−1, mice, intratracheal, lung tissue, read-out: MRT lung
[16] = 0.5 mg kg^−1, mice, intratracheal, lung tissue, read-out: Tmax lung
[17] = 0.5 mg kg^−1, mice, intratracheal, lung tissue, read-out: t1/2 lung (converted)
[18] = 0.5 mg kg^−1, mice, intratracheal, plasma
[19] = 0.5 mg kg^−1, mice, intratracheal, plasma, read-out: AUC0-t plasma
[20] = 0.5 mg kg^−1, mice, intratracheal, plasma, read-out: MRT plasma
[21] = 0.5 mg kg^−1, mice, intratracheal, plasma, read-out: Tmax plasma
[22] = mice, intratracheal (QSI 4 0.5 mg kg^−1), plasma, read-out: t1/2 plasma (converted)
[23] = mice, intratracheal, BALF, read-out: t1/2 BALF (converted)
[24] = plasma, 0.5 mg kg^−1, mice, intratracheal, plasma, read-out: Cmax plasma
[25] = plasma, mice, intratracheal, Figure 3B, read-out: Plasma: AUC0-t

T5 sequence (P07550 whole entry): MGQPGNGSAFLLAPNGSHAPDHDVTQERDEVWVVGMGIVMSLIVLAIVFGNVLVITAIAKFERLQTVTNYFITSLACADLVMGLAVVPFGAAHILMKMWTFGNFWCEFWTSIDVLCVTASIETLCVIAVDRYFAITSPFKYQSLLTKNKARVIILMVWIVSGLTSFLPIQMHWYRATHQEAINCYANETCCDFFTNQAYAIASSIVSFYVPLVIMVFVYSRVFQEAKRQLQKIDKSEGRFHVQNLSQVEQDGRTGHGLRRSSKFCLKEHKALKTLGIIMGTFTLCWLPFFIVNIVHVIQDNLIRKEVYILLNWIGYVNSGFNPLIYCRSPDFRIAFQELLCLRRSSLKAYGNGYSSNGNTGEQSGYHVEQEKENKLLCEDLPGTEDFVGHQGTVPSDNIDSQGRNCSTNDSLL
T3 sequence (P23975 whole entry): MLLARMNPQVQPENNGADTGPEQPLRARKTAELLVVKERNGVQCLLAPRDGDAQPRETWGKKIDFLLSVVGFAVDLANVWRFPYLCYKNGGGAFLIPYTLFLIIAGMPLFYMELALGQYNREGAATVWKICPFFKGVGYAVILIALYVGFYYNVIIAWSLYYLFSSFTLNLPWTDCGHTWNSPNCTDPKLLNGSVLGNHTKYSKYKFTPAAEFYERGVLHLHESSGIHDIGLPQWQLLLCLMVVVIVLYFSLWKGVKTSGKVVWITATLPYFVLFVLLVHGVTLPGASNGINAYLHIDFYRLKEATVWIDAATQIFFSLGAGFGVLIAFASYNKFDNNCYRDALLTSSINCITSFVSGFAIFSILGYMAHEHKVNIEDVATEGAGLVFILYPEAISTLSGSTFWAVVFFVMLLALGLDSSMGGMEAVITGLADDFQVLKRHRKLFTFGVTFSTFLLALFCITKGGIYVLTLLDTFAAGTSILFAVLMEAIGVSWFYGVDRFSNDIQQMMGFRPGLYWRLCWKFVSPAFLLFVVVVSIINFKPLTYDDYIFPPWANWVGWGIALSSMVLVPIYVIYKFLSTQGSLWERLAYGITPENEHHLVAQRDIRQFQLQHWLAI
T2 sequence (Q01959 whole entry): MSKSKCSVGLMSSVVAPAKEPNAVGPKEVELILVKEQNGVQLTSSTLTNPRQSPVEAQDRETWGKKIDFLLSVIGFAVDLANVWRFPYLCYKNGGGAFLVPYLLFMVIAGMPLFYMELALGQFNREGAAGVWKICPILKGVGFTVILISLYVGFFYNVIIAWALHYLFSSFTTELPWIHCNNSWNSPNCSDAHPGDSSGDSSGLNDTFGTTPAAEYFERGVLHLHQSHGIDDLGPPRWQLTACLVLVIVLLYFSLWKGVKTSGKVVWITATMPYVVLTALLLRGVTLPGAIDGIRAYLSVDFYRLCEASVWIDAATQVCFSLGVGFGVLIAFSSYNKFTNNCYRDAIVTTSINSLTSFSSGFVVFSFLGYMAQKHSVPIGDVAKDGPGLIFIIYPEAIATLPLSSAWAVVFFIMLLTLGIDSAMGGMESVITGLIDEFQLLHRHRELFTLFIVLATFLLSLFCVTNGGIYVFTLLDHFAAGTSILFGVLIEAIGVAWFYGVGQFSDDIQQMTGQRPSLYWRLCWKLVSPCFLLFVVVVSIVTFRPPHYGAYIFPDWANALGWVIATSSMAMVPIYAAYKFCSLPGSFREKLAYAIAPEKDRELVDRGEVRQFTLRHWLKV
T1 sequence (Q12809 whole entry): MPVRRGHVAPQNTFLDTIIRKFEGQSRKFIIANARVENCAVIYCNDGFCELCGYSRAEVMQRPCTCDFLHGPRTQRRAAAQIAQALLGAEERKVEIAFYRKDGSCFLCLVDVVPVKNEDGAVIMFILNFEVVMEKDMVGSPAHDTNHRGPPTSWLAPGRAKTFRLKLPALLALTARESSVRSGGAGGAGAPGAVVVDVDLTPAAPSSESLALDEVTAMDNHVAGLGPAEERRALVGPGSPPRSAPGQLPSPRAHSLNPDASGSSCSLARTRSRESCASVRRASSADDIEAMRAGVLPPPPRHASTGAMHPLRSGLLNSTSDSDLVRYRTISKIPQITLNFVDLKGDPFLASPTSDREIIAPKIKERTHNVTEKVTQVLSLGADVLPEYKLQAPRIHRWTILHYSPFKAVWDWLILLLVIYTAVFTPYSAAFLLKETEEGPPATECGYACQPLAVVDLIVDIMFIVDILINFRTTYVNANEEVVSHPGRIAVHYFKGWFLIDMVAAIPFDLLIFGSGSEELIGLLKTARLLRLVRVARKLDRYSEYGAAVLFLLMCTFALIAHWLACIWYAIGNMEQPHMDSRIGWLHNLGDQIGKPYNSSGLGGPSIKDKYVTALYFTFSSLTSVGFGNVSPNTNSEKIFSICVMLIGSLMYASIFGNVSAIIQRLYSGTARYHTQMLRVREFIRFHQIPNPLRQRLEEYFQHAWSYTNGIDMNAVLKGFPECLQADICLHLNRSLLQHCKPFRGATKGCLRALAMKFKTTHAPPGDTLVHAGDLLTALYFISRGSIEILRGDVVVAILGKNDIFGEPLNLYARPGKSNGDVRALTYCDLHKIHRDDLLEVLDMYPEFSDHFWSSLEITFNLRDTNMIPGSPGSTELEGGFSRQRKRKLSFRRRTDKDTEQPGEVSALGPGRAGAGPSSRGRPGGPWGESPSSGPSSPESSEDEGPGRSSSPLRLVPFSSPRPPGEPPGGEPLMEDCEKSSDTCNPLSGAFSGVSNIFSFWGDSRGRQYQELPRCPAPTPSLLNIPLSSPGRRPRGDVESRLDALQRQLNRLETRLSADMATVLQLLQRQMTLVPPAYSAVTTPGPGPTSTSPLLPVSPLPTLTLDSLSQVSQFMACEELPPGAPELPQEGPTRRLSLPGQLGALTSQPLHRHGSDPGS
T6 sequence (P28223 whole entry): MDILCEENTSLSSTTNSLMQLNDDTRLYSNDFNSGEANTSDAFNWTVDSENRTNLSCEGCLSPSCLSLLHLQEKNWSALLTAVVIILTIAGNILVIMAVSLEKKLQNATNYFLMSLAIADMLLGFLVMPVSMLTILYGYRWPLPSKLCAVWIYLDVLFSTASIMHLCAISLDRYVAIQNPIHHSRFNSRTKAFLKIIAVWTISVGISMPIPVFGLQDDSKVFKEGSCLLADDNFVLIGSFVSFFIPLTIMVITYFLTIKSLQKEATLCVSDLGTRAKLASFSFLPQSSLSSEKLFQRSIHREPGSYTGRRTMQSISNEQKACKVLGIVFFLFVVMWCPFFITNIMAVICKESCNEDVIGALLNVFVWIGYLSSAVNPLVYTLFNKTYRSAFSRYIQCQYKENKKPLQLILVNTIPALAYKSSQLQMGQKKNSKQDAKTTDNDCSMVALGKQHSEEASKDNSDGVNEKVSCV
T7 sequence (P41595 whole entry): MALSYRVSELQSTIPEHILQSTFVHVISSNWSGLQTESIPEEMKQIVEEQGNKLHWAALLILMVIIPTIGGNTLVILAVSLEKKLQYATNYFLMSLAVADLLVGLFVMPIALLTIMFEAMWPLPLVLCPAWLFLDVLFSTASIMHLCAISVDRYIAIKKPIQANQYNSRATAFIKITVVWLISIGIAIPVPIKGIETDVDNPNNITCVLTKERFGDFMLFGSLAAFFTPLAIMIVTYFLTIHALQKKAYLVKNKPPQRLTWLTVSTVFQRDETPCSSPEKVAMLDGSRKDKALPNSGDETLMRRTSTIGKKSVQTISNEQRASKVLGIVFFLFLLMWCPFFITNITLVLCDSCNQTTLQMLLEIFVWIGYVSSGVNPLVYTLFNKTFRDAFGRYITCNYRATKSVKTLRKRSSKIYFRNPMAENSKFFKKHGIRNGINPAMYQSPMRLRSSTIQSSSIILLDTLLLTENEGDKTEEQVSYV
T4 sequence (P35348 whole entry): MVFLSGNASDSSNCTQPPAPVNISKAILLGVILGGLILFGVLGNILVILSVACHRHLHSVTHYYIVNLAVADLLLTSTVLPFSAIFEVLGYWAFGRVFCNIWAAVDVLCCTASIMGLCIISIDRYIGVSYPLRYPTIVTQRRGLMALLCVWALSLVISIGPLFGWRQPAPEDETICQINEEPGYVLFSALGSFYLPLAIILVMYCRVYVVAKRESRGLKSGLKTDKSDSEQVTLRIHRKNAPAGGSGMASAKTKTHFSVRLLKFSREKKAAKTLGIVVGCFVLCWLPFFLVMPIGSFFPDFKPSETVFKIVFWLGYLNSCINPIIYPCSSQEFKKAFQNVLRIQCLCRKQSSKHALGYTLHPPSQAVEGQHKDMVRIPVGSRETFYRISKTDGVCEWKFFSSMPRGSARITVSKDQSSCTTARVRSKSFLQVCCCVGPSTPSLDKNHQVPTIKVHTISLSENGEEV

Row | SMILES | half-life [1] [min] | IC50 (hERG channel) [µM] | % binding, Ca2+ channel (L, dihydropyridine site) [2] [%] | % binding, Dopamine transporter (Dopamine transporter) [%] | % binding, Na+ channel (site 2) (Na+ channel (site 2)) [%] | % binding, Norepinephrine transporter [3] [%] | % binding, α1A receptor (α1A receptor) [%] | % binding, β2 receptor (β2 receptor) | % binding, 5-HT2A (5-HT2A) [%] | % binding, 5-HT2B (5-HT2B) [%] | % binding, AR (AR) [%] | Kp ([4]; mice, intratracheal) | Cmax [4, 5] | AUC(0-t) [4, 6] [ng·h/mL] | Cmax [4, 7] | AUC(0-t) [4, 8] | MRT [4, 9] [min] | Tmax [4, 10] [min] | AUC(0-t) [4, 11] | MRT [4, 12] [min] | other results
1 | FC(F)(F)c1cc(NCc2cn(-c3ccc(Oc4ccccc4)cc3)nn2)ccn1 [Compound 4] | 10 | > 25 | 78.29 | 97.25 | 54.62 | 82.52 | 40.59 | 18.03% and 18% | 65.15 | 55.25 | -10.10 | 86.9 | 3770 ng/mL and 9.2 µM | 4840 ± 2180 | 1290 ng/mL and 3.1 µM | 4840 ng·h/mL and 11.8 µM·h | 94.2 ± 6 | 30 | 3100 ng·h/mL and 7.5 µM·h | 96.6 ± 66 | Cmax ([4]; BALF, 0.5 mg/kg, mice, intratracheal 0.5 mg kg^−1, BALF, read-out: C max in BALF): 3770 ± 2660 ng/mL; Tmax [4, 13]: 100 ± 120 min; half-life [4, 14]: 33 ± 18 min; MRT [4, 15]: 76.2 ± 24 min; Tmax [4, 16]: 30 min; half-life [4, 17]: 64.8 ± 30 min; CL/F [4, 18]: 157 ± 55.5 mL/min/kg; AUC(0-t) [4, 19]: 55.8 ng·h/mL and 0.135 µM·h; MRT [4, 20]: 72 ± 6 min; Tmax [4, 21]: 30 min; Vd/F [4, 18]: 10.5 ± 1.2 L/kg; AUC ([4]; mice, intratracheal 0.5 mg kg^−1, BALF, read-out: AUC0‐t BALF): 4840 ± 2180 ng·h/mL; AUC ([4]; mice, intratracheal 0.5 mg kg^−1, ELF, read-out: AUC0‐t ELF): 3100 ± 330 ng·h/mL; AUC ([4]; mice, intratracheal 0.5 mg kg^−1, plasma, read-out: AUC0‐t plasma): 55.8 ± 21.3 ng·h/mL; half-life [4, 22]: 51.6 ± 24 min; half-life [4, 23]: 43.2 ± 30 min; Cmax [4, 24]: 62.6 ng/mL and 151 nM; Cmax ([4]; plasma, 0.5 mg/kg, mice, intratracheal 0.5 mg kg^−1, plasma, read-out: plasma C max): 62.6 ± 45.7 ng/mL; AUC(0-t) [4, 25]: 55.8 ± 21.3 ng·h/mL
2 | COc1ccc(-n2cc(CNc3ccnc(C(F)(F)F)c3)nn2)cc1Cl [Compound 17] | 3 | > 25 | 30.36 | 28.91 | -27.90 | 8.58 | 55.42 | 85.3% and 85% | 22.02 | 73.79 | 57.04 | – | – | – | – | – | – | – | – | – | –
3 | NC[C@H]1O[C@H](O[C@H]2[C@H](O)[C@@H](O[C@H]3O[C@H](CO)[C@@H](O)[C@H](N)[C@H]3O)[C@H](N)C[C@@H]2N)[C@H](N)C[C@@H]1O [Tobramycin, tobramycin] | – | – | – | – | – | – | – | – | – | – | – | 3.2 | 215 ng/mL and 460 nM | 268 ± 27 | 38.8 ng/mL and 83 nM | 268 ng·h/mL and 0.57 µM·h | 84 ± 6 | 30 | 57.5 ng·h/mL and 0.12 µM·h | 90 ± 12 | Tmax [4, 13]: 30 min; half-life [4, 14]: 33.6 ± 12 min; MRT [4, 15]: 116 min; Tmax [4, 16]: 30 min; half-life [4, 17]: 67.8 min; CL/F [4, 18]: 45.3 ± 26.6 mL/min/kg; AUC(0-t) [4, 19]: 83.2 ng·h/mL and 0.178 µM·h; MRT [4, 20]: 87 ± 72 min; Tmax [4, 21]: 30 min; Vd/F [4, 18]: 2.25 ± 1.6 L/kg; half-life [4, 22]: 45.6 ± 48 min; half-life [4, 23]: 49.2 ± 6 min; Cmax [4, 24]: 89.5 ng/mL and 191 nM; AUC(0-t) [4, 25]: 83.2 ± 35.3 ng·h/mL; Cmax BALF ([4]; mice, intratracheal, BALF): 215.4 ± 50 ng/mL

From paper PMC8224453, “A New PqsR Inverse Agonist Potentiates Tobramycin Efficacy to Eradicate Pseudomonas aeruginosa Biofilms” (Advanced Science, 2021)
